Tested on: NOMO1
Test: cell viability relative to DMSO control; higher = less cytotoxic
Settings: 48 h
Outline: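 Viability values are per-plate percentages of DMSO wells, with background from cell-free wells. Library compounds in DMSO were pin-dosed, in an 11-point threefold series from 47 μM to 0.79 nM, onto NOMO1 or SEM (500 cells/well) or P12-Ichikawa (1000 cells/well) leukemia cells in 1536-well plates (5 μl). Those cells had been adapted for at least four passages in each medium, and CellTiter-Glo One luminescence was read after 48 h at 37°C.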

[1] = HPLM + 10% dialyzed FBS, 0.000781 µM
[2] = HPLM + 10% dialyzed FBS, 0.00234 µM
[3] = HPLM + 10% dialyzed FBS, 0.00702 µM
[4] = HPLM + 10% dialyzed FBS, 0.0211 µM
[5] = HPLM + 10% dialyzed FBS, 0.0632 µM
[6] = HPLM + 10% dialyzed FBS, 0.19 µM
[7] = HPLM + 10% dialyzed FBS, 0.569 µM
[8] = HPLM + 10% dialyzed FBS, 1.71 µM
[9] = HPLM + 10% dialyzed FBS, 5.12 µM
[10] = HPLM + 10% dialyzed FBS, 15.4 µM
[11] = HPLM + 10% dialyzed FBS, 46.1 µM
[12] = RPMI 5 mM glucose + 10% FBS, 0.000781 µM
[13] = RPMI 5 mM glucose + 10% FBS, 0.00234 µM
[14] = RPMI 5 mM glucose + 10% FBS, 0.00702 µM
[15] = RPMI 5 mM glucose + 10% FBS, 0.0211 µM
[16] = RPMI 5 mM glucose + 10% FBS, 0.0632 µM
[17] = RPMI 5 mM glucose + 10% FBS, 0.19 µM
[18] = RPMI 5 mM glucose + 10% FBS, 0.569 µM
[19] = RPMI 5 mM glucose + 10% FBS, 1.71 µM
[20] = RPMI 5 mM glucose + 10% FBS, 5.12 µM
[21] = RPMI 5 mM glucose + 10% FBS, 15.4 µM
[22] = RPMI 5 mM glucose + 10% FBS, 46.1 µM
[23] = RPMI 5 mM glucose + 10% dialyzed FBS, 0.000781 µM
[24] = RPMI 5 mM glucose + 10% dialyzed FBS, 0.00234 µM
[25] = RPMI 5 mM glucose + 10% dialyzed FBS, 0.00702 µM
[26] = RPMI 5 mM glucose + 10% dialyzed FBS, 0.0211 µM
[27] = RPMI 5 mM glucose + 10% dialyzed FBS, 0.0632 µM
[28] = RPMI 5 mM glucose + 10% dialyzed FBS, 0.19 µM
[29] = RPMI 5 mM glucose + 10% dialyzed FBS, 0.569 µM
[30] = RPMI 5 mM glucose + 10% dialyzed FBS, 1.71 µM
[31] = RPMI 5 mM glucose + 10% dialyzed FBS, 5.12 µM
[32] = RPMI 5 mM glucose + 10% dialyzed FBS, 15.4 µM
[33] = RPMI 5 mM glucose + 10% dialyzed FBS, 46.1 µM

Row | Compound | cell viability [1] [%] | cell viability [2] [%] | cell viability [3] [%] | cell viability [4] [%] | cell viability [5] [%] | cell viability [6] [%] | cell viability [7] [%] | cell viability [8] [%] | cell viability [9] [%] | cell viability [10] [%] | cell viability [11] [%] | cell viability [12] [%] | cell viability [13] [%] | cell viability [14] [%] | cell viability [15] [%] | cell viability [16] [%] | cell viability [17] [%] | cell viability [18] [%] | cell viability [19] [%] | cell viability [20] [%] | cell viability [21] [%] | cell viability [22] [%] | cell viability [23] [%] | cell viability [24] [%] | cell viability [25] [%] | cell viability [26] [%] | cell viability [27] [%] | cell viability [28] [%] | cell viability [29] [%] | cell viability [30] [%] | cell viability [31] [%] | cell viability [32] [%] | cell viability [33] [%]
1 | C[S+](=O)([O-])Nc1ccc([N+](=O)[O-])cc1Oc1ccccc1 | 121 | 127 | 118 | 96.4 | 121 | 116 | 122 | 107 | 103 | 101 | 70.8 | 109 | 98.4 | 104 | 110 | 108 | 93.5 | 104 | 96.7 | 101 | 98.1 | 60.6 | 103 | 116 | 96 | 112 | 101 | 112 | 98.2 | 106 | 110 | 112 | 47.1
2 | C[C@]12CC[C@@H]3c4ccc(O)cc4CC[C@H]3[C@@H]1[C@@H](O)[C@@H](O)[C@@H]2O | 117 | 121 | 124 | 123 | 121 | 127 | 116 | 128 | 103 | 110 | 102 | – | – | – | – | – | – | – | – | – | – | – | 106 | 138 | 118 | 142 | 140 | 141 | 131 | 134 | 150 | 128 | 130
3 | CC(C)N[C@@H]1CCn2c(=O)[nH]c3cccc(c32)[C@H]1O | – | – | – | – | – | – | – | – | – | – | – | 119 | 110 | 121 | 119 | 111 | 108 | 117 | 104 | 105 | 103 | 55.6 | – | – | – | – | – | – | – | – | – | – | –
4 | CN(C)C1CCN(C(=O)c2ccc(NC(=O)Nc3nc(N4CCOCC4)nc(N4CCOCC4)n3)cc2)CC1 | 85.5 | 100 | 80 | 67.8 | 60.6 | 52.9 | 43.1 | 44.9 | 40.5 | 28.7 | 25.1 | 84.8 | 89.3 | 90.5 | 84.5 | 64.9 | 63.6 | 52.7 | 49 | 43.4 | 36.5 | 18.2 | 84.9 | 83.8 | 83.9 | 70.9 | 60.8 | 53.3 | 45.8 | 44.4 | 39.6 | 38 | 22.8
5 | CC(C)c1nc(CN(C)C(=O)N[C@H](C(=O)N[C@@H](Cc2ccccc2)C[C@H](O)[C@H](Cc2ccccc2)NC(=O)OCc2cncs2)C(C)C)cs1 | 92.4 | 107 | 100 | 95.3 | 89.9 | 88.9 | 98.5 | 70.5 | 94.4 | 80.7 | 74.3 | 75.3 | 75.3 | 78.5 | 81.2 | 77.4 | 80.2 | 77.6 | 79.3 | 79.9 | 75.7 | 79 | 86.5 | 80.7 | 93 | 90.6 | 92.8 | 83.2 | 81.7 | 77.1 | 84.9 | 79.2 | 77.1
6 | CN[C@H]1CCC2=CC(=C(OC)C(=C2C/3=C/C=C(OC)\C(=O)/C=C13)OC)OC | 119 | 96 | 75.2 | 30.1 | 32.9 | 38.4 | 43.5 | 40.9 | 31.4 | 33.9 | 25.8 | 120 | 109 | 90.7 | 22.8 | 22.3 | 24.5 | 25.4 | 22.4 | 21.1 | 17.1 | 10.4 | 108 | 97.1 | 102 | 23.5 | 31.9 | 28.3 | 27.9 | 28.7 | 23.1 | 21.9 | 14.3
7 | COC(=O)C[C@](O)(CCCC(C)(C)O)C(=O)O[C@@H]1C(OC)=CC23CCCN2CCc2cc4c(cc2[C@H]13)OCO4 (stereo partly specified) | 114 | 111 | 105 | 108 | 118 | 107 | 117 | 97.1 | 96 | 105 | 96.6 | 97.1 | 93.4 | 96.3 | 102 | 107 | 98.4 | 105 | 101 | 88.4 | 93.6 | 90.1 | 102 | 105 | 104 | 111 | 108 | 109 | 101 | 100 | 102 | 103 | 97.8
8 | CCOC(=O)c1ccc(OC(=O)CCCCCNC(=N)N)cc1 | 126 | 115 | 122 | 116 | 137 | 128 | 127 | 84.6 | 91.8 | 62.4 | 55 | 117 | 119 | 124 | 114 | 131 | 128 | 114 | 132 | 77.3 | 83 | 104 | 116 | 110 | 135 | 134 | 114 | 142 | 137 | 154 | 85.7 | 81.8 | 91.2

From the supplement of paper PMC11451515
